From US20230002446A1, “ANTI-INFLAMMATORY AGENTS” (The University of Sydney, priority 2019, published 2023)
Where no end group is shown, it is not given here. [ ]: non-standard residue; d: D form. Ala(3-Me-diazirin-3-yl) = CC1(C[C@H](N)C(=O)O)N=N1; PEG = not defined here

Tests used:
C57BL/6 mice [1] = test: imiquimod-induced psoriasis model; type: in vivo
Experimental: FIG. 4—Peptide administration reduces local disease severity in a mouse model of psoriasis. (A) Experimental outline (B) Clinical scores of mice receiving PBS or peptide RP23 (SEQ ID NO:12) injection, compared to daily (0-4 days) topical application of glucocorticoid on the back and ear. (C) Measures of disease local to the peptide RP23 injection site. Redness was measured using an unbiased erythema meter and skin thickness by manual callipers. (D) Spleen weight at day 5 as a measure of systemic immune suppression. […] Data are presented as mean±S.E.M. Statistical significance was determined by ANOVA with Dunnett's multiple comparison test, *p<0.05, **p<0.01, ***p<0.001, ****p<0.0001.
FIG. 10. Therapeutic synergy of RP23 and topical steroid in the murine imiquimod-induced psoriasis model. Aldara cream (5% imiquimod, 57.5 mgs) was applied daily (days 0-4) to the backs of C57BL/6 female mice to induce psoriasis. Clinical scores (PASI), modified psoriasis area and severity index) of mice receiving (A) PBS or RP23 injection at day −1, with or without topical application of glucocorticoid (0.05% betamethasone dipropionate, “BD” 30 mgs) on the back at day 0 (B) PBS or RP23 injection at day 1 and topical application of glucocorticoid at day 1, in comparison to PBS injection only at day −1. Data are the means+/−SEM (n=5). Statistical significance was determined by ANOVA with Dunnett's multiple comparison test to PBS only control, *p<0.05, **p<0.01, ***p<0.001, ****p<0.0001.
The backs of 8-week old female C57BL/6 mice (Australian BioResources) were coarse shaved. A minimum of 24 hours later, 10 nmol RP23 was delivered via sub-cutaneous injection at the lower back in 200 μl phosphate buffered saline (PBS). Groups of mice acting as positive controls for disease development received injection of PBS only. One or seven days later, psoriasis-like inflammation was induced via topical application of 5% imiquimod cream (Aldara, Inova Pharmaceuticals) to the shaved back (57.5 mgs) and one ear (5 mg, divided between dorsal and ventral sides). The contralateral ear served as a negative control for imiquimod-induced inflammation. Imiquimod application was repeated daily for four consecutive days. C57BL/6 mice experience rapid weight loss (up to 20%) upon application of imiquimod cream. Supportive care was provided in the form of dietary supplementation commenced 2 days prior to imiquimod application, and intra-peritoneal injection of 300 μl sterile PBS on days two and three of imiquimod application. Disease progression was monitored for five days, by recording weight loss and grading disease of the back skin using a modified Psoriasis Area and Severity Index (PASI) clinical scoring system, that assessed only disease severity. Additionally, erythema meter (DSM II ColorMeter, Cortex Technology, Denmark) readings were taken at four quadrants on the back skin and skin backfold thickness measurements were recorded using manual callipers. Disease progression of the ear skin was determined by recording ear thickness, measured by manual callipers. As a positive control for immune suppressive therapy, groups of mice received daily topical application of betamethasone dipropionate 0.05% (MSD) cream (30 mgs on the back, 10 mgs on the ear).
Aldara cream (5% imiquimod, 57.5 mgs) was applied daily (days 0-4) to the backs of C57BL/6 female mice to induce psoriasis. Clinical scores (PASI, modified psoriasis area and severity index) of mice receiving prophylactic PBS or RP23 (at day −1), with or without topical application of glucocorticoid (0.05% betamethasone dipropionate, 30 mgs) to the back at day 0, were determined (FIG. 10A).
RP23 and BD therapy were also tested when given synergistically at a therapeutic timepoint (at day 1). Psoriasis was induced as above, but clinical scores were determined daily for 10 days after ceasing imiquimod application at day 5, to record the rate and degree of psoriasis disease resolution (FIG. 10B).

C57BL/6 mice [2] = test: contact hypersensitivity model (DNFB-induced contact dermatitis); type: in vivo; conditions: for specific increase in ear thickness: equivalent molar amount of 10 nmol RP23, subcutaneously at the abdomen (FIG. 9); for inflammatory response (ear thickness over 72 hours): 10 nmol subcutaneously at the abdomen, compared to PBS (FIG. 8)
Experimental: FIG. 2—Peptide administration reduces inflammation in a mouse model of contact dermatitis and reduces myeloid inflammatory infiltrate. (A) Experimental outline of DNFB-induced contact dermatitis. (B) Ear thickness of peptide RP23 (SEQ ID NO:12) treated mice, repeated 3 times. […] Data are presented as mean±S.E.M. Statistical significance was determined (B) by multiple t tests (C) by ANOVA with Dunnett's multiple comparison test, *p<0.05, **p<0.01, ***p<0.001.
FIG. 3—The peptide effect is dependent on the peptide sequence and dose. (A) PBS, scrambled peptide or peptide MUC1SP ([…]; SEQ ID NO: 3) was injected subcutaneously seven days prior to sensitising C57BL/6 mice (n=5) with DNFB on the abdomen. […] (B) A comparison of the immunosuppressive effect of peptide RP23 (SEQ ID NO:12) and MUC1SP (SEQ ID NO: 3). (C) SEQ ID NO:12 suppressed immunity in a dose dependent manner. (D) Addition of GM-CSF to the SEQ ID NO:12 injection abrogated the immune suppression. Data are the means±S.E.M.
FIG. 8—Effects of peptide variants on the inflammatory response. Mice received one injection of PBS or one of the following peptides (10 nmol) subcutaneously at the abdomen (A) peptide RP23 (SEQ ID NO: 12), peptide AF594-RP23 (SEQ ID NO: 21), peptide K4-G3-MUC1SP (SEQ ID NO:22) or MUC1SP C fragment (SEQ ID NO: 2). Five days later, mice were challenged with DNFB at a distal site, on the ears. The thickness of the ears was measured over 72 hours.
FIG. 9—Effects of further peptide variants, without N-terminal methionine, on the inflammatory response in a model of contact dermatitis. Mice received one injection of PBS, RP23 (SEQ ID NO:12) (10 nmol) or one of the peptide variants indicated in the table including SEQ ID NO: 32 and 35 as described herein (equivalent molar amount of RP23), subcutaneously at the abdomen. Photoleucine replaces leucine where indicated, these molecules used for photo-crosslinking studies. Seven days later, abdominal skin was sensitised with a contact irritant (DNFB) and five days later, mice were challenged with DNFB at a distal site, on the ears. (A) Specific increase in ear thickness over 72 hours, data are the means+/−SEM (n=6). Statistical significance was determined by ANOVA with Dunnett's multiple comparison test to PBS only control, **p<0.01. (B) Specific increase in ear thickness at 24 hours post-challenge. Data are the means+/−SEM (n=6). Statistical significance was determined by t-test to relevant control, as indicated, *p<0.05, **p<0.01, ns=not significant.
The abdomens of 8-week old female C57BL/6 mice (Australian BioResources) were coarse shaved. A minimum of 24 hours later, RP23 (SEQ ID NO:12) was delivered via sub-cutaneous injection at the abdomen in 50 μl phosphate buffered saline. Seven days later, mice were topically sensitised to 1-fluoro-2,4-dinitrobenzene (DNFB, 0.5 vol %) in olive oil/acetone (1:4, v/v, 30 μl) via application to the shaved abdomen. Five days after sensitisation, mice were challenged on the ears with topical DNFB (0.25 vol %) in olive oil/acetone (1:4, v/v, 15 μl per ear). Ear thickness was measured daily using manual callipers from immediately before challenge, up to 96 hours post challenge. Positive controls for ear swelling consisted of mice that were injected with PBS instead of RP23. Negative or irritant controls consisted of a group of mice that received the DNFB challenge, but not the sensitisation. The average of the change in ear thickness from this control group was subtracted from the change in ear thickness of other samples to account for non-specific irritation due to the application of DNFB, olive oil and acetone.
The inventors then conducted additional in vivo studies, using a model of contact hypersensitivity, to determine the portion of RP23 responsible for its immunomodulatory activity. Mice received one injection of peptide (10 nmol) subcutaneously at the abdomen, seven days prior to sensitisation of the skin with a contact irritant (DNFB). […]

C57BL/6 mice [3] = conditions: mouse, in vivo
Experimental: AF594-RP23^+ cells were identified by flow cytometry 24 hours after administration to C57BL/6 mice. (A) RP23 was injected subcutaneously at the lower back. […] (B) RP23 was delivered to the lungs by intranasal instillation. The percentage distribution of total RP23^+ leukocytes amongst immune cell subsets in the lungs is shown. Data are the means+/−SEM (n=4).
AF594-RP23+ cells were identified by flow cytometry 24 hours after administration to C57BL/6 mice.

[4] = daily topical 0.05% cream, 30 mgs back, 10 mgs ear

Q: For `CCC(=O)OCC(=O)[C@@]1(OC(=O)CC)[C@@H](C)C[C@H]2[C@@H]3CCC4=CC(=O)C=C[C@]4(C)[C@@]3(F)[C@@H](O)C[C@@]21C` [betamethasone dipropionate, reference compound], which spleen weight (C57BL/6 mice [1]; [4]) is on record?
A: Its spleen weight is “substantial reductions in spleen weight”.

Q: What about the weight loss (C57BL/6 mice [1]; [4]) of the same molecule?
A: The weight loss was “greater degree of weight loss”.

Q: And the “clinical scores (PASI), protective effect as the disease progressed” value (C57BL/6 mice [1]; prophylactic: injection day -1, BD day 0, later time points)?
A: Its value is “protective effect from BD alone was lost”.

Q: What about the “systemic immune suppression / locality of effect” value (C57BL/6 mice [1]; spleen weight at day 5, distal ear thickness (FIG. 4d)) of the same molecule?
A: The value was “caused unwanted systemic immune suppression”.

Q: For “(Gd)DOTA-KKKK-PEG-TPGTQSPFFLLLLLTVLTVV (KKKK[PEG]TPGTQSPFF[Ala(3-Me-diazirin-3-yl)][Ala(3-Me-diazirin-3-yl)][Ala(3-Me-diazirin-3-yl)][Ala(3-Me-diazirin-3-yl)][Ala(3-Me-diazirin-3-yl)]TVLTVV; not fully specified (N-terminus); reading uncertain; also: Gd chelated by DOTA; listed as Homo sapiens) [SEQ ID NO: 32]”, which “specific increase in ear thickness” value (C57BL/6 mice [2]) is on record?
A: Its value is “confirmed”.

Q: Which “cells capturing the peptide in the lung” value (C57BL/6 mice [3]) does the source give for “AF594-KKKK-PEG-MTPGTQSPFFLLLLLTVLTVV (KKKKMTPGTQSPFFLLLLLTVLTVV; AF594-KKKK-PEG N-terminal; (1)..(1) Alexa Fluor 594 backbone modification; (4)..(5) polyethylene glycol (PEG) backbone modification between residues 4 and 5; listed as Homo sapiens) [SEQ ID NO: 21]” here?
A: Its value is “primarily captured by neutrophils, alveolar macrophages and DC”.

Q: And the “cells capturing the peptide in the skin” value (C57BL/6 mice [3])?
A: The value was “primarily captured in the skin by neutrophils (CD11 b+Ly6G+) or CD11 b+ myeloid cell subsets”.

Q: What about the “inflammatory response (ear thickness over 72 hours)” value (C57BL/6 mice [2]) of the same molecule?
A: The value was “led to a reduced inflammatory response”.

Q: With “Biotin-KKKK-PEG-TPGTQSPFFLLLLL*TVLTVV, wherein L* is photoleucine [SEQ ID NO: 35]” as the molecule, how does the “specific increase in ear thickness” value (C57BL/6 mice [2]) read?
A: The value was “confirmed”.

Q: “Biotin-KKKK-peg-QLTLTFVPSTLGFL*TLPVLV (no N-term Met) [scrambled variant of SEQ ID NO. 35, reference compound]” was tested. Which “specific increase in ear thickness” value (C57BL/6 mice [2]) did it give?
A: The value was “did not have a reduction in ear inflammation”.

Q: For “KKKKGGGMTPGTQSPFFLLLLLTVLTVV (listed as Homo sapiens) [SEQ ID NO: 22]”, which “inflammatory response (ear thickness over 72 hours)” value (C57BL/6 mice [2]) is on record?
A: Its value is “led to a reduced inflammatory response”.

Q: How did the “inflammatory response (ear thickness over 72 hours)” value (C57BL/6 mice [2]) turn out when “LLLLLTVLTVV (listed as Homo sapiens) [SEQ ID NO: 2]” was run?
A: The value was “led to a reduced inflammatory response”.

Q: With “MTPGTQSPFFLLLLLTVLTVV (listed as Homo sapiens) [SEQ ID NO: 3]” as the molecule, how does the “ear swelling, sequence specificity” value (C57BL/6 mice [2]; subcutaneous seven days prior to sensitising with DNFB (FIG. 3a)) read?
A: Its value is “the effect was specific to the SEQ ID NO: 3 sequence”.
